As a reminder, the pIC50 is the IC50 on a negative log10 scale, so that one unit is a factor of ten.

SMILES strings stand for the structures. pIC50: −log10 of the molar value.

In this test the target is T1, full length active recombinant SYK enzyme (Homo sapiens, UniProt P43405).
T1 construct: full length active recombinant SYK enzyme (Millipore, Calif.); purchased Millipore
Kind of test: Inhibition of Syk tyrosine phosphorylation activity (LANCE TR-FRET kinase assay). Type of test: biochemical. The procedure:
Inhibition of Syk Tyrosine Phosphorylation Activity
Potency of candidate molecules for inhibiting Syk tyrosine phosphorylation activity is assessed by measuring the ability of a test compound to inhibit Syk-mediated tyrosine phosphorylation of a Syk-specific substrate.
SYK tyrosine phosphorylation activity is measured using the LANCE™ Technology developed by Perkin Elmer Life and Analytical Sciences (Boston, Mass.). LANCE™ refers to homogeneous time resolved fluorometry applications using techniques such as time-resolved fluorescence resonance energy transfer assay (TR-FRET) (see generally for procedures in Perkin Elmer Application Note—How to Optimize a Tyrosine Kinase Assay Using Time Resolved Fluorescence-Based LANCE Detection, wwww.perkinelmer.com/lifesciences). The assay principle involves detection of a phosphorylated substrate using energy transfer from a phosphospecific europium-labeled antibody to streptavidin-allophycocyanin as an acceptor.
To test the ability of candidate molecules to inhibit SYK tyrosine phosphorylation activity, molecules are reconstituted in 30% DMSO and serially diluted 1:3 with the final dilution containing DMSO in the absence of the candidate molecule. The final DMSO concentration in the assay is 3%. Kinase assays are performed as a two part reaction. […] The second reaction involves termination of the kinase reaction and the simultaneous addition of the detection reagents—europium-labeled anti-phosphotyrosine reagent (Eu-W1024-PY100, Perkin Elmer, Boston, Mass.) and Streptavidin-Allophycocyanin detection reagent (SA-APC, Prozyme, Calif.). The kinase reaction is performed in a black U-bottom 96-well microtitre plate. The final reaction volume is 50 μL and contains a final concentration of 1 nM active SYK enzyme, 550 nM SYK-substrate, and 100 μM ATP diluted in a buffer containing 50 mM Tris pH 7.5, 5 mM MgCl2, and 1 mM DTT. The reaction is allowed to proceed for 1 hour at room temperature. The quench buffer contains 100 mM Tris pH 7.5, 300 mM NaCl2, 20 mM EDTA, 0.02% Brij35, and 0.5% BSA. The detection reagents are added to the reaction mixture at the following dilutions-1:500 for Eu-W1024-PY100 and 1:250 for SA-APC. The kinase reaction is terminated by the addition of 50 μL quench buffer containing the detection reagents. The detection is allowed to proceed for 1 hr at room temperature. Detection of the phosphorylated substrate in the absence and presence of inhibitors is measured in the TR-FRET instrument, Analyst HT (Molecular Probes, Sunnyvale, Calif.) and the condition for measurements are set up using CriterionHost Release 2.0 (Molecular Probes, Sunnyvale, Calif.). The settings used are a follows: excitation 360 nm, emission 665-7.5 nm, beam splitter 350 nm 50/50, flash 100 pulses, delay 60 us, integration 400 us, z-height 2 mm. […] IC50s were derived by non-linear regression analysis. […]
On to `NC(=O)c1cc(F)c(N[C@@H]2CCCC[C@@H]2N)nc1Nc1ccc2nccn2c1` [Example 61, 6-((1R,2S)-2-aminocyclohexylamino)-5-fluoro-2-(imidazo[1,2-a]pyridin-6-ylamino)nicotinamide], for which the pIC50 is 8.00 to 9.00. On to `NC(=O)c1cc(F)c(N[C@@H]2CCCC[C@@H]2N)nc1Nc1ccn2ccnc2c1` [Example 62, 6-((1R,2S)-2-aminocyclohexylamino)-5-fluoro-2-(imidazo[1,2-a]pyridin-7-ylamino)nicotinamide], for which the pIC50 is 8.00 to 9.00. Next, `Cn1ccc2cc(Nc3nc(N[C@@H]4CCCC[C@@H]4N)c(F)cc3C(N)=O)ccc21` [Example 63, 6-((1R,2S)-2-aminocyclohexylamino)-5-fluoro-2-(1-methyl-1H-indol-5-ylamino)nicotinamide]: 8.00 to 9.00; `Cn1ccc2c(Nc3nc(N[C@@H]4CCCC[C@@H]4N)c(F)cc3C(N)=O)cccc21` [Example 64, 6-((1R,2S)-2-aminocyclohexylamino)-5-fluoro-2-(1-methyl-1H-indol-4-ylamino)nicotinamide]: above 9.00; `Cn1cc2c(Nc3nc(N[C@@H]4CCCC[C@@H]4N)c(F)cc3C(N)=O)cccc2n1` [Example 65, 6-((1R,2S)-2-aminocyclohexylamino)-5-fluoro-2-(2-methyl-2H-indazol-4-ylamino)nicotinamide]: 6.00 to 7.00.

In the case of `NC(=O)c1cc(F)c(N[C@@H]2CCCC[C@@H]2N)nc1Nc1ccc2ncccc2c1` [Example 66, 6-((1R,2S)-2-aminocyclohexylamino)-5-fluoro-2-(quinolin-6-ylamino)nicotinamide], the pIC50 was above 9.00.

In the case of `NC(=O)c1cc(F)c(N[C@@H]2CCCC[C@@H]2N)nc1Nc1ccc2cnccc2c1` [Example 67, 6-((1R,2S)-2-aminocyclohexylamino)-5-fluoro-2-(isoquinolin-6-ylamino)nicotinamide], the pIC50 is above 9.00. The result for `NC(=O)c1cc(F)c(N[C@@H]2CCCC[C@@H]2N)nc1Nc1ccc2ccncc2c1` [Example 68, 6-((1R,2S)-2-aminocyclohexylamino)-5-fluoro-2-(isoquinolin-7-ylamino)nicotinamide] reads 8.00 to 9.00.

In the case of `NC(=O)c1cc(F)c(N[C@@H]2CCCC[C@@H]2N)nc1Nc1ccc2cccnc2c1` [Example 69, 6-((1R,2S)-2-aminocyclohexylamino)-5-fluoro-2-(quinolin-7-ylamino)nicotinamide], the pIC50 is 8.00 to 9.00. `NC(=O)c1cc(F)c(N[C@@H]2CCCC[C@@H]2N)nc1Nc1cnc2ccccc2c1` [Example 70, 6-((1R,2S)-2-aminocyclohexylamino)-5-fluoro-2-(quinolin-3-ylamino)nicotinamide]: the pIC50 was 8.00 to 9.00.

For the molecule `NC(=O)c1cc(F)c(N[C@@H]2CCCC[C@@H]2N)nc1Nc1cncc2ccccc12` [Example 71, 6-((1R,2S)-2-aminocyclohexylamino)-5-fluoro-2-(isoquinolin-4-ylamino)nicotinamide], the pIC50 was 8.00 to 9.00. Next, `NC(=O)c1cc(F)c(N[C@@H]2CCCC[C@@H]2N)nc1Nc1ccnc2ccccc12` [Example 72]: 8.00 to 9.00. Next, `NC(=O)c1cc(F)c(N[C@@H]2CCCC[C@@H]2N)nc1Nc1cccc2ncccc12` [Example 73, 6-((1R,2S)-2-aminocyclohexylamino)-5-fluoro-2-(quinolin-5-ylamino)nicotinamide]: 8.00 to 9.00. The result for `NC(=O)c1cc(F)c(N[C@@H]2CCCC[C@@H]2N)nc1Nc1cccc2cnccc12` [Example 74, 6-((1R,2S)-2-aminocyclohexylamino)-5-fluoro-2-(isoquinolin-5-ylamino)nicotinamide] reads 8.00 to 9.00. As for `NC(=O)c1cc(F)c(N[C@@H]2CCCC[C@@H]2N)nc1Nc1cccc2ccncc12` [Example 75, 6-((1R,2S)-2-aminocyclohexylamino)-5-fluoro-2-(isoquinolin-8-ylamino)nicotinamide], the pIC50 is 6.00 to 7.00. For the molecule `NC(=O)c1cc(F)c(N[C@@H]2CCCC[C@@H]2N)nc1Nc1ccc2nccnc2c1` [Example 76, 6-((1R,2S)-2-aminocyclohexylamino)-5-fluoro-2-(quinoxalin-6-ylamino)nicotinamide], the pIC50 was 8.00 to 9.00.

With `NC(=O)c1cc(F)c(N[C@@H]2CCCC[C@@H]2N)nc1Nc1cnc2nccnc2c1` [Example 77, 6-((1R,2S)-2-aminocyclohexylamino)-5-fluoro-2-(pyrido[3,2-b]pyrazin-7-ylamino)nicotinamide], the pIC50 is 7.00 to 8.00.

For `NC(=O)c1cc(F)c(N[C@@H]2CCCC[C@@H]2N)nc1Nc1ccc2c(c1)OCCO2` [Example 78], the pIC50 was 8.00 to 9.00.

`COCCOc1cccc(Nc2nc(N[C@@H]3CCCC[C@@H]3N)c(F)cc2C(N)=O)c1` [Example 79, 6-((1R,2S)-2-aminocyclohexylamino)-5-fluoro-2-(3-(2-methoxyethoxy)phenylamino)nicotinamide]: the pIC50 is 8.00 to 9.00. Next, `NC(=O)c1cc(F)c(N[C@@H]2CCCC[C@@H]2N)nc1Nc1cccc(OC2CCOCC2)c1` [Example 80, 6-((1R,2S)-2-aminocyclohexylamino)-5-fluoro-2-(3-(tetrahydro-2H-pyran-4-yloxy)phenylamino)nicotinamide]: 8.00 to 9.00. The result for `NC(=O)c1cc(F)c(N[C@@H]2CCCC[C@@H]2N)nc1Nc1ccc(OC2CCOCC2)cc1` [Example 81, 6-((1R,2S)-2-aminocyclohexylamino)-5-fluoro-2-(4-(tetrahydro-2H-pyran-4-yloxy)phenylamino)nicotinamide] reads 7.00 to 8.00. The result for `Cc1cc(Nc2nc(N[C@@H]3CCCC[C@@H]3N)c(F)cc2C(N)=O)sn1` [Example 82, 6-((1R,2S)-2-aminocyclohexylamino)-5-fluoro-2-(3-methylisothiazol-5-ylamino)nicotinamide] reads 8.00 to 9.00; that for `Cn1cc(Nc2nc(N[C@@H]3CCCC[C@@H]3N)c(F)cc2C(N)=O)cn1` [Example 83, 6-((1R,2S)-2-aminocyclohexylamino)-5-fluoro-2-(1-methyl-1H-pyrazol-4-ylamino)nicotinamide], 7.00 to 8.00; that for `NC(=O)c1cc(F)c(N[C@@H]2CCCC[C@@H]2N)nc1Nc1ccnnc1` [Example 84], 6.00 to 7.00. For the molecule `Cc1cc(Nc2nc(N[C@@H]3CCCC[C@@H]3N)c(F)cc2C(N)=O)ccn1` [Example 85, 6-((1R,2S)-2-aminocyclohexylamino)-5-fluoro-2-(2-methylpyridin-4-ylamino)nicotinamide], the pIC50 is 8.00 to 9.00.

Regarding `Cc1cc(Nc2nc(N[C@@H]3CCCC[C@@H]3N)c(F)cc2C(N)=O)cc(C)n1` [Example 86, 6-((1R,2S)-2-aminocyclohexylamino)-2-(2,6-dimethylpyridin-4-ylamino)-5-fluoronicotinamide], the pIC50 is 8.00 to 9.00. The result for `Cc1cncc(Nc2nc(N[C@@H]3CCCC[C@@H]3N)c(F)cc2C(N)=O)c1` [Example 87, 6-((1R,2S)-2-aminocyclohexylamino)-5-fluoro-2-(5-methylpyridin-3-ylamino)nicotinamide] reads 8.00 to 9.00; that for `COc1cncc(Nc2nc(N[C@@H]3CCCC[C@@H]3N)c(F)cc2C(N)=O)c1` [Example 88, 6-((1R,2S)-2-aminocyclohexylamino)-5-fluoro-2-(5-methoxypyridin-3-ylamino)nicotinamide], 8.00 to 9.00.

Source of the values: US8846928B2 (Portola Pharmaceuticals, Inc., priority 2010, dated 2014).
